Data reported in ChEMBL document CHEMBL4602618, “Novel compounds that reverse the disease phenotype in Type 2 Gaucher disease patient-derived cells” (Bioorg Med Chem Lett, 2020).
Converted amounts (≈) assume the structure as drawn.

What was measured:
[1] = Chaperone activity at GCase L444P GBA gene mutant in human fibroblasts derived from Gaucher patient assessed as increase in GPN-induced reduction of calcium release using Fluo-8AM based fluorescence assay
Homo sapiens = species: Homo sapiens; assay: Chaperone activity at GCase L444P GBA gene mutant in human fibroblasts derived from Gaucher patient assessed as increase in GPN-induced reduction of calcium release using Fluo-8AM based fluorescence assay relative to control
[2] = target: T1, Estrogen receptor (Homo sapiens) (UniProt P03372); assay: Agonist activity at estradiol receptor (unknown origin) at 10 uM relative to control
T1 sequence (whole entry): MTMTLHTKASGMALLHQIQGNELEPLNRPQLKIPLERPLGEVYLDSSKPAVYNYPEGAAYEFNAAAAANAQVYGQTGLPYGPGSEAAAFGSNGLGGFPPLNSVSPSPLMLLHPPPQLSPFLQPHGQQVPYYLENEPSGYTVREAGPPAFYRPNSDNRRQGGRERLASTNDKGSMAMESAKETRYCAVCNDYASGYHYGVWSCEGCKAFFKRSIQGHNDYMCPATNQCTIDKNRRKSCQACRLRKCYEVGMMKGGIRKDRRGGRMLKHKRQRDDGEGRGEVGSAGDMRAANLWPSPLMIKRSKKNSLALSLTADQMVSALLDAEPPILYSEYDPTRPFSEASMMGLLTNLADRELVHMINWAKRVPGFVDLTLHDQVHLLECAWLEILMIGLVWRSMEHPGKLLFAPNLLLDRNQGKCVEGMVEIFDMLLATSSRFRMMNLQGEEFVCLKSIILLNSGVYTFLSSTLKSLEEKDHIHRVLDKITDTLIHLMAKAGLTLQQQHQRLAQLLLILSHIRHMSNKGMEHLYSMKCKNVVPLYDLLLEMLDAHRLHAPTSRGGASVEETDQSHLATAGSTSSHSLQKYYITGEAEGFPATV

[3] = mouse, microsomes
[4] = target: T2, Lysosomal acid glucosylceramidase (Homo sapiens) (UniProt P04062); assay: Chaperone activity at GCase in wild-type human fibroblasts assessed as increase in GPN-induced reduction of calcium release using Fluo-8AM based fluorescence assay relative to control
T2 sequence (whole entry): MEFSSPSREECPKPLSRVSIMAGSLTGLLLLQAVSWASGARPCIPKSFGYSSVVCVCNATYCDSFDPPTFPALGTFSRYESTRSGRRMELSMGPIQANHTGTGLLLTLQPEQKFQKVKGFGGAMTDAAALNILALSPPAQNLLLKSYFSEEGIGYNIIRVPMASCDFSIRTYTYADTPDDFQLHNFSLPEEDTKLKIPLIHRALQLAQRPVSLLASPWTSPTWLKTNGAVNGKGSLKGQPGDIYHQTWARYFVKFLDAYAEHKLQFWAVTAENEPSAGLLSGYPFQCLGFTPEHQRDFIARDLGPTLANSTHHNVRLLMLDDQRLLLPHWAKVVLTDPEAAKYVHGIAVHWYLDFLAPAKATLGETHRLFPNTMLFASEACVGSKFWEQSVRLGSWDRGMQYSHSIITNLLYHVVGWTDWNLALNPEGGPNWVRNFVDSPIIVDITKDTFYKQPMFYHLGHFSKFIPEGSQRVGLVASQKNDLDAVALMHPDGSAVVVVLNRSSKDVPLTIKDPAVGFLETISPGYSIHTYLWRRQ

[5] = human, microsomes
[6] = Aqueous solubility of compound in PBS; format: physicochemical; conditions: buffer

Row | SMILES | Emax (Homo sapiens) [%] | Activity [2] [%] | t1/2 [3] [min] | Emax [4] [%] | t1/2 [5] [min] | solubility [6] [µM] | EC50 [1] [µM]
1 | CCCC(CCC)(C(=O)c1ccc(OCCN(C)C)cc1)c1ccccc1 | 60 | 25 | – | – | – | – | 4
2 | CC(C)C(C(=O)c1ccc(OCCN(C)C)cc1)c1ccccc1 (configuration not stated) | 54 | – | – | – | – | – | 4.4
3 | CCCCC(C(=O)c1ccc(OCCN(C)C)cc1)c1ccccc1C(C)C (configuration not stated) | 401 | 45 | 7.9 | 56 | 21.6 | 49.4 (≈ 18.8 µg/mL) | 1.4
4 | C/C=C/c1ccccc1C(CCCC)C(=O)c1ccc(OCCN(C)C)cc1 (configuration not stated) | 257 | 35 | 9.1 | 109 | 24.4 | 45.2 (≈ 17.2 µg/mL) | 2.2
5 | CC(C)CC(C(=O)c1ccc(OCCN(C)C)cc1)c1ccccc1C1CC1 (racemic) | 240 | 0 | 7.7 | 50 | 26.7 | 31.7 (≈ 12 µg/mL) | 3.1
6 | CCC(Cc1ccccc1)c1ccc(OCCN(C)C)cc1 (configuration not stated) | 0 | 75 | – | – | – | – | > 20
7 | CC(C)CC(C(=O)c1ccc(OCCN(C)C)cc1)c1cccc(C(C)C)c1 (configuration not stated) | 80 | – | – | – | – | – | 1.5
8 | CC/C(=C/c1ccc(OCCN(C)C)cc1)c1ccc([N+](=O)[O-])cc1 | 0 | – | – | – | – | – | > 20
9 | C=Cc1ccccc1C(CCCC)C(=O)c1ccc(OCCN(C)C)cc1 (configuration not stated) | 177 | 100 | – | – | – | – | 2.3
10 | CCCCCCC(C(=O)c1ccc(OCCN(C)C)cc1)c1ccccc1 (configuration not stated) | 0 | 5 | – | – | – | – | > 20
11 | CCCCC(C(=O)c1ccc(OCCN(C)C)cc1)c1ccccc1CC (configuration not stated) | 138 | – | – | – | – | – | 0.65
12 | CCC(Cc1ccc(OCCN(C)C)cc1)c1ccccc1 (configuration not stated) | 154 | 43 | – | – | – | – | 4.3
13 | CC(C)CCC(C(=O)c1ccc(OCCN(C)C)cc1)c1ccccc1 (configuration not stated) | 191 | 35 | – | – | – | – | 3.6
14 | CC(C)CC(C(=O)c1ccc(OCCN(C)C)cc1)c1ccccc1C(C)C (configuration not stated) | 406 | 39 | – | 148 | – | – | –

More lines, main results first:

Row | Emax (Homo sapiens) [%] | Activity [2] [%] | t1/2 [3] [min] | Emax [4] [%] | t1/2 [5] [min] | solubility [6] [µM] | SMILES | EC50 [1] [µM]
15 | 0 | 46 | – | – | – | – | CC/C(=C/c1ccc(OCCN(C)C)cc1)c1ccc(C(N)=O)cc1 | > 20
16 | 80 | 35 | – | – | – | – | CC/C(=C/c1ccc(OCCN(C)C)cc1)c1ccccc1 | 15.5
17 | 40 | 47 | – | – | – | – | CC/C(=C/c1ccc(OCCN(C)C)cc1)Cc1ccccc1 | 2.3
18 | 70 | 70 | – | – | – | – | CC/C(=C/c1ccc(OCCN(C)C)cc1)c1ccc(Cl)cc1 | 5.4
19 | 73 | 19 | – | – | – | – | CC/C(=C\c1ccc(OCCN(C)C)cc1)c1ccccc1 | 5.8
20 | 108 | 40 | – | – | – | – | CC(C)CC(C(=O)c1ccc(OCCN(C)C)cc1)c1ccccc1 (configuration not stated) | 0.9
21 | 148 | – | – | 28 | – | – | CC/C(=C(\c1ccccc1)c1ccc(OCCN(C)C)cc1)c1ccccc1 | –
22 | 67 | 69 | – | – | – | – | CC/C(=C\c1ccc(OCCN(C)C)cc1)Cc1ccccc1 | 3.1
23 | 53 | 43 | – | – | – | – | CC/C(=C\c1ccccc1)c1ccc(OCCN(C)C)cc1 | 3
24 | 0 | 25 | – | – | – | – | CC/C(=C/c1ccc(OCCN(C)C)cc1)c1ccc(N)cc1 | > 20
25 | 56 | 98 | – | – | – | – | CCCC/C(=C\c1ccc(OCCN(C)C)cc1)c1ccccc1 | 7.2
26 | 48 | – | – | – | – | – | CC/C(=C(\c1ccc(I)cc1)c1ccc(OCCN2CCCC2)cc1)c1ccccc1 [IDOXIFENE] | 10.7
27 | 47 | 32 | – | – | – | – | CC/C(=C/c1ccc(OCCN(C)C)cc1)c1ccc(C#N)cc1 | 4.3
28 | 0 | 46 | – | – | – | – | CC/C(=C/c1ccc(OCCN(C)C)cc1)c1ccc(F)cc1 | > 20
29 | 0 | – | – | – | – | – | CCCCC(C(=O)c1ccc(OCCN(C)C)cc1)c1ccccc1 (configuration not stated) | > 20
